Results reported in patent US8173685B2, “Pleuromutilin derivatives and their use as antimicrobials” (Nabriva Therapeutics AG, priority 2007, dated 2012).
≈ marks a conversion by molar mass, not a printed value. Where two headings read alike, the source gives them in different places.

What was measured:
Assay type in all cases: cell-based
[1] = test system: Staphylococcus aureus (MSSA) ATCC10390 (strain B6); experiment: MIC determination according to CLSI, Staphylococcus aureus (MSSA) ATCC10390
From the text: (§1) For example, the compounds of the present invention show antimicrobial, e.g. antibacterial, activity against gram positive bacteria, such as coagulase-positive and coagulase-negative Staphylococci, e.g. Staphylococcus aureus, Styphylococcus epidermis, Staphylococcus haemolyticus, Streptococci, e.g. Streptococcus pyogenes, Streptococcus pneumoniae, Streptococcus agalacticae, Enterococci, e.g. Enterococcus faecium and Moraxellaceae, e.g. Moraxella catarrhalis, Pasteurellaceae, e.g. Haemophilus influenzae, as well as against Mycoplasmactaceae, Chlamydiaceae, e.g. Chlamydia trachomatis, Chlamydia pneumoniae and obligatory anaerobes, e.g. Bacteroides fragilis, Clostridium difficile; in vitro in the Agar Dilution Test or Microdilution Test according to the Climical and Laboratory Standards Institute (CLSI, former National Committee for Clinical Laboratory Standards (NCCLS) 2006, Document M7-A7 Vol. 26, No. 2: “Methods for dilution Antimicrobial Susceptibility Tests for Bacteria that Grow Aerobically—Seventh Edition, Approved Standard”; and in the in vitro determination of the antibacterial activity against anaerobic bacteria according to National Committee for Clinical Laboratory Standards (NCCLS) VOL. 24, No. 2, M11-A5, Methods for Antimicrobal Susceptibility Testing of Anaerobic Bacteria; Approved Standard; Sixth Edition (2004) and in vivo in the septicaemic mouse model against Staphylococcus aureus.
(§2) The antibacterial activity expressed as minimal inhibitory concentration (MIC) was determined according to the approved standard reference recommendations of CLSI (former NCCLS).

[2] = test system: Staphylococcus aureus (MSSA) ATCC29213 (strain B7); experiment: MIC determination according to CLSI, Staphylococcus aureus (MSSA) ATCC29213
From the text: as §1, §2

[3] = test system: Enterococcus faecalis ATCC29212 (strain B4); experiment: MIC determination according to CLSI, Enterococcus faecalis ATCC29212
From the text: as §1, §2

[4] = test system: Enterococcus faecalis ATCC51299 (strain B5); experiment: MIC determination according to CLSI, Enterococcus faecalis ATCC51299
From the text: as §1, §2

[5] = test system: Moraxella catarrhalis ATCC43618 (strain B407); experiment: MIC determination according to CLSI, Moraxella catarrhalis ATCC43618
From the text: as §1, §2

[6] = test system: Escherichia coli ATCC25922 (strain B1); experiment: MIC determination according to CLSI, Escherichia coli ATCC25922
From the text: as §1, §2

[7] = test system: Streptococcus pneumoniae ATCC49619 (strain B11); experiment: MIC determination according to CLSI, Streptococcus pneumoniae ATCC49619
From the text: as §1, §2

[8] = test system: Staphylococcus aureus, Enterococcus faecalis, Streptococcus pneumoniae, Moraxella catarrhalis and Escherichia coli; experiment: Antibacterial activity (MIC) against the panel of clinical relevant bacterial pathogens
Description: as §2

[9] = Staphylococcus aureus (MSSA), ATCC10390, strain B6, read-out: MIC
[10] = Staphylococcus aureus (MSSA), ATCC29213, strain B7, read-out: MIC
[11] = ATCC29212, strain B4, read-out: MIC
[12] = ATCC51299, strain B5, read-out: MIC
[13] = ATCC43618, strain B407, read-out: MIC
[14] = ATCC25922, strain B1, read-out: MIC
[15] = ATCC49619, strain B11, read-out: MIC

MIC [1, 9] | MIC [2, 10] | MIC [3, 11] | MIC [4, 12] | MIC [5, 13] | MIC [6, 14] | MIC [7, 15] | factor by which MICs are lower than the MICs of examples 39-41 ([8]; against at least one of the strains shown in Table 1) | Structure (SMILES) | MIC ([1]; Staphylococcus aureus) | MIC ([2]; Staphylococcus aureus) | MIC ([3]; ATCC29212) | MIC ([4]; ATCC51299) | MIC ([5]; ATCC43618) | MIC ([6]; ATCC25922) | MIC ([7]; ATCC49619) | activity against the clinical relevant bacterial pathogens (in words) ([8]; in vitro, S. aureus, E. faecalis, S. pneumoniae, M. catarrhalis, E. coli)
 |  |  |  |  |  |  |  | CC[C@]1(C)C[C@@H](OC(=O)COc2cccc(C)c2)[C@]2(C)C(C)CCC3(CCC(=O)C32)[C@@H](C)[C@@H]1O (stereo partly drawn) [Example 41, 14-O-[(3-Methyl-phenoxy)-acetyl]-19,20-dihydromutilin] | 0.05 µg/mL (≈ 0.106 µM) | 0.1 µg/mL (≈ 0.212 µM) | > 6.4 µg/mL | > 6.4 µg/mL | 0.025 µg/mL (≈ 0.0531 µM) | > 6.4 µg/mL | > 0.64 µg/mL | 
0.025 µg/mL (≈ 0.0516 µM) | 0.05 µg/mL (≈ 0.103 µM) | > 6.4 µg/mL | > 6.4 µg/mL | 0.0125 µg/mL (≈ 0.0258 µM) | > 6.4 µg/mL | 0.16 µg/mL (≈ 0.33 µM) |  | C=C[C@]1(C)C[C@@H](OC(=O)CSc2cccc(C)c2)[C@]2(C)C(C)CCC3(CCC(=O)C32)[C@@H](C)[C@@H]1O (stereo partly drawn) [Example 39, 14-O-[(3-Methyl-phenylsulfanyl)-acetyl]-mutilin] |  |  |  |  |  |  |  | 
≤ 0.0125 µg/mL | ≤ 0.0125 µg/mL | 1.6 µg/mL (≈ 2.62 µM) | 1.6 µg/mL (≈ 2.62 µM) | 0.0125 µg/mL (≈ 0.0205 µM) | 12.8 µg/mL (≈ 21 µM) | ≤ 0.0025 µg/mL | ≥ 2 | C=C[C@]1(C)C[C@@H](OC(=O)CSc2cccc(CNC(=O)[C@H]3CCCCN3)c2)[C@]2(C)C(C)CCC3(CCC(=O)C32)[C@@H](C)[C@@H]1O (stereo partly drawn) [Example 1, 14-O-[(3-{[((R)-Piperidine-2-carbonyl)-amino]-methyl}-phenylsulfanyl)-acetyl]-mutilin] |  |  |  |  |  |  |  | very good activity
 |  |  |  |  |  |  |  | C=C[C@]1(C)C[C@@H](OC(=O)COc2cccc(C)c2)[C@]2(C)[C@H](C)CC[C@]3(CCC(=O)[C@H]32)[C@@H](C)[C@@H]1O [Example 40, 14-O-[(3-Methyl-phenoxy)-acetyl]-mutilin] | 0.05 µg/mL (≈ 0.107 µM) | 0.05 µg/mL (≈ 0.107 µM) | > 6.4 µg/mL | > 6.4 µg/mL | 0.0125 µg/mL (≈ 0.0267 µM) | > 6.4 µg/mL | 0.64 µg/mL (≈ 1.37 µM) | 
